One data set has as its target T1, HCV helicase (Hepatitis C virus genotype 1b, UniProt Q9WMX2).
T1 construct: truncated C-terminally His-tagged NS3 proteins lacking the N-terminal protease, called NS3h; His-tag (C); made in house
The data set can be described thus: MBHA with RNA substrate (HCV helicase-catalyzed RNA unwinding). To be noted: in words. It is filed as biochemical. An excerpt:
(§1) All oligonucleotides were purchased from Integrated DNA Technologies (IDT, Coralville, Iowa). The partially duplex DNA substrates used in MBHAs consisted of a helicase substrate forming 25 base pairs and consists of a 45-mer bottom strand 5′-GCTCCCCGTTCATCGATTGGGGAGC(T)20-3′ (SEQ ID NO:1) and the 25-mer HCV top strand 5′-Cy5-GCTCCCCAATCGATGAACGGGGAGC-IBRQ-3′ (SEQ ID NO:2). The 19 base pair RNA substrate used in MBHAs was composed of a 39 nucleotide long bottom strand 5′-AGU GCC UUG ACG AUA CAG C(U)20-3′ (SEQ ID NO:3) and the 24 nucleotide long top strand 5′-Tye^665-AGUGCGCUGUAUCGUCAAGGCACU-IBRQSp-3′ (SEQ ID NO:4). Underlined areas denote hairpin-forming regions. DNA and RNA substrates were annealed and purified as described previously (Belon & Frick (2008) BioTechniques 45:433-40, 442).
(§2) All molecular beacon-based helicase assays (MBHAs) were performed according to known methods (Belon & Frick (2008) supra; Belon & Frick (2009) supra). […] In each flat, black 384-well plate, 56 compounds were tested, in triplicate, along with three negative controls (DMSO only), three positive controls (500 nM dT20), and two wells with no enzyme. Fluorescence was read before ATP (F0) addition and 30 minutes after ATP was added to 1 mM (F30) using a Tecan Infinite M200 fluorescence microplate reader with excitation and emission wavelengths set to 643 and 670 nm, respectively. Percent inhibition was calculated with equation 1, and compound interference in the MBHA was calculated with equation 2.
To monitor helicase reaction kinetics and to calculate IC50 values, MBHAs were performed in 60 μL in white ½ area 96-well plates and measured in a Thermo Varioscan Multimode reader (Thermo Scientific) using the 643 nm excitation wavelength and 667 emission wavelengths. […] Initial reaction velocities were calculated by fitting first-order decay equation to data obtained after ATP addition and calculating an initial velocity form the resulting amplitude and rate constant.

Data set [1] addresses T2, HCV NS3 helicase NS3h_1b(con1) (Hepatitis C virus genotype 1b, UniProt Q9WMX2).
T2 construct: truncated C-terminally His-tagged NS3 proteins lacking the N-terminal protease, called NS3h; His-tag (C); made in house
Description: biochemical. It is filed as biochemical, hepatitis C virus genotype 1b(con1).
Excerpt: as §1
The cloning, expression, and purification of His-tagged recombinant HCV NS3 protein have been described previously (Lam, et al. (20030 J. Virol. 77:3950-61; Heck, et al. (2008) Antimicrob. Agents Chemother. 52:1901-11; Frick et al. (2010) Methods Mol. Biol. 587:223-233; Belon, et al. & Frick (2009) J. Mol. Biol. 388:851-864).
as §2
To monitor helicase reaction kinetics and to calculate IC50 values, MBHAs were performed in 60 μL in white ½ area 96-well plates and measured in a Thermo Varioscan Multimode reader (Thermo Scientific) using the 643 nm excitation wavelength and 667 emission wavelengths. Reactions were again performed by first incubating all components except for ATP for two minutes, then initiated by injecting in 1/10 volume of ATP such that the final concentration of all components was as noted above. Conditions were as described above except that 5% v/v DMSO was present in each assay. Initial reaction velocities were calculated by fitting first-order decay equation to data obtained after ATP addition and calculating an initial velocity form the resulting amplitude and rate constant.
[formula] where, v0 is the velocity observed in DMSO-only controls inhibition, h is the Hillslope coefficient, [I] is the concentration of test compound.

The test system of data set [2] is MBHA DNA substrate. The data set can be described thus: Modified FID assay, SYBR Green I. Particulars: FID; mean ± SD; read-out: DNA Binding (SYBR Green I) EC50. Type of data set: binding. Here is the method: A modified FID assay, in which ethidium bromide was replaced with SYBR Green I (Invitrogen), was used to estimate a compounds affinity for the MBHA substrate. Reactions were performed as described above except that the DNA substrate was present at 0.32 μM, ethidium bromide was absent, and SYBER Green was present at (0.68 μM). Data were normalized as described above and fit to concentration-response equation using GraphPad Prism software. Titrations with each compound were performed in triplicate, and EC50 values from three independent titrations are reported ±standard deviations.

The target of data set [3] is MBHA DNA substrate. The data set can be described thus: Fluorescent intercalation displacement (FID) assay, ethidium bromide. To be noted: FID; mean ± SD; read-out: DNA Binding (Ethidium Bromide) EC50. It is filed as binding. The method, then: Fluorescent intercalation displacement (FID) assays (Boger, et al. (2001) J. Am. Chem. Soc. 123:5878-5891) were used to measure the ability of a compound to bind the MBHA substrate. The concentration at which half the ethidium bromide is displaced (EC50) was determined using the different conditions as above to more closely mimic the conditions of a standard helicase assay. Each 100 μL reaction contained 25 mM MOPS pH 6.5, 0.16 μM MBHA DNA substrate (lacking Cy5 and IBQ-RQ modifications), 2 μM ethidium bromide, and various concentrations of test compound. Fluorescence of ethidium bromide was monitored using excitation and emission wavelengths of 545 and 595 nm, respectively, on a Cary Eclipse fluorescence spectrophotometer in white 96-well plates. The amount of ethidium bromide-DNA complex fluorescence was used to estimate the ability of compounds to bind DNA, and therefore displace the fluorescent intercalator (ethidium bromide).
In Equation 4, Fc is the fluorescence in the presence of the compound, F(−) is the average DMSO-only negative controls, and F(+) is the average positive controls (100 μM berenil). EC50 values were from a normalized dose-response curve.
These twelve hits were then subjected to a counterscreen designed to independently identify DNA binding compounds using a modified fluorescent intercalator displacement (FID) assay (Boger, et al. (2001) supra). The FID assay used ethidium bromide to judge a compound's ability to bind DNA and was based on the assumption that a DNA binding compound would displace a fluorescent DNA intercalating agent, leading to an observable decrease in observed fluorescence. Compounds were tested at 1.5 μM in the presence of the 25 base pair substrate used in the helicase assays.

A further data set has as its system Huh-7.5 cells. Description: Cell viability assay ([…]-GLO). Type of data set: cell-based, human. Particulars: 10 μM. Here is the method: To assess compound toxicity toward Huh-7.5 cells, cells were plated and treated as above and cell viability was assessed using the […]-GLO luminescent cell viability kit (PROMEGA) following the manufacturer's instructions. Briefly, at the end of a 72 hour incubation period, the medium was aspirated and the cells were washed with 1×PBS, then an equal volume of growth medium and […]-GLO reagent was added and the lysis was initiated by mixing on an orbital shaker. The plate was incubated at 23° C. for 30 minutes and the luciferase activity was measured for 1 second using the FLUOSTAR Omega microplate reader (BMG Labtech).

The next data set addresses T3, NS3h_1b(con1) (Hepatitis C virus genotype 1b, UniProt Q9WMX2).
T3 construct: truncated C-terminally His-tagged NS3 proteins lacking the N-terminal protease, called NS3h; His-tag (C); made in house
The data set can be described thus: ATP hydrolysis assay (malachite green). Type of data set: biochemical. The method, then: A modified “malachite green” assay (Lanzetta, et al. (1979) Anal. Biochem. 100:95-97) was used to measure ATP hydrolysis. Fifty μL reactions contained 25 mM MOPS pH 6.5, 5 mM MgCl2, 2 mM ATP, 5 μg/mL BSA, 0.01% (v/v) TWEEN 20, 0.05 mM DTT, and poly(U) RNA (Saint Louis, Mo.) as indicated. Reactions were initiated by adding NS3h_1b(con1). Reactions were incubated for 15 minutes at 37° C. then stopped by mixing 40 μL of the reaction into 200 μL of the malachite green reagent (3 volumes 0.045% (w/v) malachite green, 1 volume 4.2% ammonium molybdate in 4N HCl, 0.05 volume of 20% TWEEN 20). […] Absorbance at 630 nm was proportional to the concentration of phosphate produced; free phosphate produced was measured against a standard curve.

Data set [4] addresses T4, E. coli SSB-Cy5-dT15 complex (Escherichia coli, UniProt P0AGE0).
T4 construct: purchased Promega
The data set can be described thus: Escherichia coli SSB Cy5-dT15 binding assay (fluorescence polarization). To be noted: disruption of Cy5-dT15-SSB complex; read-out: Cy5-dT15-SSB Binding IC50. Here is the method:
The Escherichia coli SSB assay was performed in a total volume of 20.2 μl in 384-well, flat-bottom, low volume, black microplates (Greiner Bio-One). First, 20 μl of a assay solution (5 nM Cy5-[…]-3′ (Cy5-dT15, SEQ ID NO:5), 20 nM E. coli SSB (Promega), 25 mM MOPS, pH 7.5, 1.25 mM MgCl2, 0.0025 mg/ml BSA, 0.005% (v/v) TWEEN 20 and 0.025 mM DTT) was dispensed in each well, then 0.2 μl of dimethylsulfoxide (DMSO) or compound dissolved in DMSO was added by pin transfer, such that the final concentration of DMSO was 1% (v/v) in each assay.
For IC50 determination, assays were performed with 60 μl total volume in black flat bottomed 384-well microplates (Corning). First, 3.0 μl of DMSO or compound dissolved in DMSO was added, such that the final concentration of DMSO was 5% (v/v) in each assay. Then 57 μl of a assay solution (5 nM Cy5-dT15, 20 nM SSB, 25 mM MOPS, pH 7.5, 1.25 mM MgCl2, 0.0025 mg/ml BSA, 0.005% (v/v) TWEEN 20 and 0.025 mM DTT) was dispensed in each well. Polarization was monitored with a TECAN Infinite M1000 PRO multi-mode microplate reader by exciting at 635 nm (5 nm bandwidth) and measuring total fluorescence intensity, parallel and perpendicular polarized light at 667 nm (20 nm bandwidth).

The mark [5] stands for this setting: MBHA, DNA unwinding, mean ± SD of three titrations, read-out: Helicase IC50.
Setting [6] is: standard HCV helicase MBHA (Table 9), read-out: DNA Unwinding IC50.

The source of these data is patent publication US9464064B2, “HCV helicase inhibitors and methods of use thereof” (University of Kansas, priority 2011, dated 2016).

Molecules are shown by their SMILES. Like-named read-outs stand apart in the source and are kept apart here.

T4 sequence (P0AGE0 2-178, one chain of several): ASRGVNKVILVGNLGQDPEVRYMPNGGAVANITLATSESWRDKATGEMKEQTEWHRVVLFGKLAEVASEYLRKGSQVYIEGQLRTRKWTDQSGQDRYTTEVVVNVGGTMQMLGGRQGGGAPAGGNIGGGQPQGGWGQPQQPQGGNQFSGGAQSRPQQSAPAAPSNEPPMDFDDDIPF
T2 sequence (Q9WMX2 1192-1657): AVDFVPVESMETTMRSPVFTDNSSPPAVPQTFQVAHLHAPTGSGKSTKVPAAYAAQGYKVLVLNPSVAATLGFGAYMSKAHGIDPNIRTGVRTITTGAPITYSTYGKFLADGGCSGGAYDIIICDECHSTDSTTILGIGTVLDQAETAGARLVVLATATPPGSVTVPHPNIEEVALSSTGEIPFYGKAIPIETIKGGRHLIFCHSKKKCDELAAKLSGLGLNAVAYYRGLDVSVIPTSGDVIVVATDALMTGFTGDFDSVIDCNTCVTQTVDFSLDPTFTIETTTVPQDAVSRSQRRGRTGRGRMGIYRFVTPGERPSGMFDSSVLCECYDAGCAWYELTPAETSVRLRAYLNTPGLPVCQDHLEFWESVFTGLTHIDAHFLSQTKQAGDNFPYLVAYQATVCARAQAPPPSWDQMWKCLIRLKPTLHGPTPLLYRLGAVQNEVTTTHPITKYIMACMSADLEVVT
T3 sequence (Q9WMX2 1192-1657): as above
T1 sequence (Q9WMX2 1192-1657): as above

A word on the IC50: it is the concentration at which inhibition is half-maximal. For `CO[C@@H]1[C@H](O)C[C@@H](O[C@@H]2C[C@H](Oc3cc4cc5c(c(O)c4c(O)c3C)C(=O)[C@@H](O[C@H]3C[C@@H](O[C@H]4C[C@@H](O[C@H]6C[C@](C)(O)[C@@H](OC(C)=O)[C@H](C)O6)[C@H](O)[C@@H](C)O4)[C@H](O)[C@@H](C)O3)[C@H]([C@H](OC)C(=O)[C@@H](O)[C@@H](C)O)C5)O[C@H](C)[C@@H]2OC(C)=O)O[C@@H]1C` [Chromomycin A3, reference compound], at HCV helicase, the “effect on HCV helicase catalyzed RNA unwinding” value was “no effect”. In data set [1] (setting [5]), the IC50 was found to be 0.15 ± 0.03 µM.

As usually defined, the EC50 is the concentration giving half of the maximal effect. `CCOc1ccc2c(NNC(=O)c3cnccn3)c3c(nc2c1)CCCC3` [Compound 1, reference compound]: the EC50 with MBHA DNA substrate [2] and on MBHA DNA substrate [3] was greater than 100 µM in each case. In addition, in the data set on Huh-7.5 cells, the toxicity to cells result is on record as “None of the comparison helicase inhibitors were particularly toxic at 10 μM except for 1”. Besides, the IC50 (against NS3h_1b(con1); in data set [1] (setting [5])) was greater than 100 µM throughout.

With `CN1CCN(Cc2cc(CN3CCN(C)CC3)c(O)c(=O)c(CN3CCN(C)CC3)c2)CC1` [Compound 4, reference compound], the values for the EC50 with MBHA DNA substrate [2] and at MBHA DNA substrate [3] were 74 ± 21 µM and greater than 100 µM, respectively. The figures for the IC50 (on NS3h_1b(con1); in data set [1] (setting [5])) were greater than 100 µM and 19 ± 8 µM, respectively.

With `Cc1ccc2nc(-c3ccc(N)cc3)sc2c1S(=O)(=O)O` [Compound P1a, 2-(4-aminophenyl)-6-methylbenzo[d]thiazole-7-sulfonic acid], the 50% effective concentration (EC50) in the data set on MBHA DNA substrate [2] and on MBHA DNA substrate [3] was greater than 100 µM in each case. The 50% inhibitory concentration (IC50) on NS3h_1b(con1) is greater than 100 µM; in data set [1] (setting [5]), 70 ± 31 µM; in data set [1] (setting [6]) it was 70 ± 31 µM; in data set [4] it was 13 ± 4 µM.

For `Cc1cc2sc(-c3ccc(N)cc3)nc2cc1S(=O)(=O)O` [Compound P1b, 2-(4-aminophenyl)-6-methylbenzo[d]thiazole-5-sulfonic acid], the concentration giving a half-maximal response (EC50) in the data set with MBHA DNA substrate [2] and on MBHA DNA substrate [3] was greater than 100 µM in each case. For the same compound, the IC50 against NS3h_1b(con1) was greater than 100 µM; in data set [1] (setting [5]) it was 122 ± 5 µM; in data set [1] (setting [6]), 122 ± 5 µM; in data set [4], 19 ± 8 µM.

For `Cc1cc2sc(-c3ccc4nc(-c5ccc(N)cc5)sc4c3)nc2cc1S(=O)(=O)O` [Compound P2b, 2′-(4-aminophenyl)-6-methyl-[2,6′-bibenzo[d]thiazole]-5-sulfonic acid], the EC50 was found to be 32 ± 3 µM in the data set with MBHA DNA substrate [2] and 73 ± 36 µM at MBHA DNA substrate [3]. The IC50 was greater than 100 µM against NS3h_1b(con1), 10 ± 4.6 µM in data set [1] (setting [5]), 7 ± 4 µM in data set [1] (setting [6]) and 1 µM in data set [4].

For `Cc1ccc2c(c1)sc(-c1ccc(N(C)C)cc1)[n+]2C.[Cl-]` [thioflavine T, reference compound], at HCV helicase, the “effect on HCV helicase catalyzed RNA unwinding” value is recorded as “no effect”. The “effect on HCV helicase catalyzed DNA unwinding” value in data set [1] (in words) is on record as “no effect”.
